Results taken from US20240239792A1, “MODULATORS OF BCL-2 OR BCL-2/BCL-XL AND USES THEREOF” (APPICINE THERAPEUTICS (HK) LIMITED, priority 2021, published 2024).

What was measured:
BCL-2 = target: T1, BCL-2 (Homo sapiens, UniProt P10415); experiment: HTRF BCL-2/BAK assay (Cisbio); format: binding; conditions: recombinant human Tag1-BCL-2 2 nM, Tag2-BAK 10 nM
T1 construct: purchased Cisbio 63ADK000CB01PEG
Experimental: (§1) Then the pre-mixed anti-Tag1-Eu^3+ and anti-tag2-XL665 were added to the plate and further incubated at room temperature for another 2 hours. The signals ([…]) were read on Envision 2104 instrument. The IC50 for each compound was derived from fitting the signal of 665/615 nM to the increasing compound concentration.
(§2) Using the above assays, the following compounds were tested.

CYP2C9 = target: T2, CYP2C9 (Homo sapiens, UniProt P11712); experiment: CYP2C9 activity assay in human liver microsomes, substrate diclofenac; format: in vitro ADME; conditions: probe diclofenac, test compound 1 μM, 37° C. 10 min, read-out: Inhibition rate (%) against CYP2C9 Enzyme
T2 construct: from tissue; host or cells: human liver microsomes
Experimental: In this assay, several exemplary compounds of the present disclosure and a control compound (Venetoclax) were used as the test compounds. In general, the assay was conducted by the following steps: • 1. The solution of test compound, human liver microsomes solution, and substrate (diclofenac) solution were mixed in a 96-well assay plate on ice to, and the final concentration of each test compound is 1 μM; • 2. The 96-well assay plate and NADPH solution were pre-incubated at 37° C. for 5 minutes; • 3. NADPH solution was added to into the assay plates to initiate the reaction; • 4. The assay plate was incubated at 37° C. for 10 min; • 5. The reaction was stopped; and after quenching, a portion of the supernatant was taken from each well for LC/MS analysis; • 6. The inhibition rate was calculated by the following equation: Inhibition rate (%)=(1−Valuetest/Valuecontrol)×100%, where Valuetest refers to the LC/MS data obtained from wells with test compounds and Valuecontrol refers to the LC/MS data obtained from wells without test compound.

DOHH2 cells = experiment: CellTiter-Glo cell proliferation assay, DOHH2 cells; format: cell-based; conditions: Homo sapiens, DOHH-2, 72 hours
Procedure, shortened: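 DOHH2 cells seeded in DMEM + 10% FBS, exposed to serially diluted compound for 72 h at 37 °C, 5% CO2. Viability read by CellTiter-Glo luminescence; GI50 calculated.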

BCL-XL = target: T3, BCL-XL (Homo sapiens, UniProt Q07817); experiment: HTRF BCL-XL/BAK assay (Cisbio); format: binding; conditions: recombinant human Tag1-BCL-XL 2 nM, Tag2-BAK 5 nM
T3 construct: purchased Cisbio 63ADK000CB04PEG
Experimental: as §1, §2

T3 sequence (Q07817 whole entry): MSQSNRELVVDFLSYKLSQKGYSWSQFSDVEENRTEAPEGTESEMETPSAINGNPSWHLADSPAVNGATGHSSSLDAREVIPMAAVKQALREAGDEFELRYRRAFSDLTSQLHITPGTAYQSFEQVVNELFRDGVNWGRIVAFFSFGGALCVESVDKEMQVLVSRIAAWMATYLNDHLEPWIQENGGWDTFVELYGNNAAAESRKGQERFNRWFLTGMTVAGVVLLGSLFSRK
T2 sequence (P11712 whole entry): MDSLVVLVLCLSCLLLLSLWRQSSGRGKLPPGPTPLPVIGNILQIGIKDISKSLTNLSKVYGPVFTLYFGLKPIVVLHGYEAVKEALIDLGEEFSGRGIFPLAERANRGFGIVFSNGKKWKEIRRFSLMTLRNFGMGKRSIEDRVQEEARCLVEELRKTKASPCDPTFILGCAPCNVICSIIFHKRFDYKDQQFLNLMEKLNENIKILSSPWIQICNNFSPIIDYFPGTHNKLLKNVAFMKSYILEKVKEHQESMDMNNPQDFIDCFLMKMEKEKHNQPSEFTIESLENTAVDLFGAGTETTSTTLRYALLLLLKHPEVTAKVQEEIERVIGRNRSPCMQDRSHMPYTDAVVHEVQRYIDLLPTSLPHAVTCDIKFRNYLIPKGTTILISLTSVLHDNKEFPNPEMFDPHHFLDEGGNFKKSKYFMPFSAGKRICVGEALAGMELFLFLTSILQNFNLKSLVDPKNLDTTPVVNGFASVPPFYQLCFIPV
T1 sequence (P10415 whole entry): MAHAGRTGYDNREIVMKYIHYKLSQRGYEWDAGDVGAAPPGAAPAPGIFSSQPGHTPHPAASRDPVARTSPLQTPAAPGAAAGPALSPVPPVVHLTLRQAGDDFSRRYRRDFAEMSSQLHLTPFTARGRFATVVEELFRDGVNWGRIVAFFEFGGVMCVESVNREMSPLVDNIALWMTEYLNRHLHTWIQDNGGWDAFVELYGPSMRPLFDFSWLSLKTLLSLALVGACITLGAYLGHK

Structure (SMILES)	IC50 (BCL-2) [µM]	inhibition at 10 min, 1 µM (CYP2C9) [%]	IC50 (BCL-XL) [µM]	GI50 (DOHH2 cells) [µM]
O=C(NS(=O)(=O)c1ccc(NCC2CCOCC2)c([N+](=O)[O-])c1)c1ccc(N2CCC3(CC2)CN(C2CCCc4ccccc42)C3)cc1Oc1cnc2[nH]ccc2c1 (centres unmarked) [Compound 94, 2-((1H-pyrrolo[2,3-b]pyridin-5-yl)oxy)-N-((3-nitro-4-(((tetrahydro-2H-pyran-4-yl)methyl)amino)phenyl)sulfonyl)-4-(2-(1,2,3,4-tetrahydronaphthalen-1-yl)-2,7-diazaspiro[3.5]nonan-7-yl)benzamide]	< 0.02	< 30		0.5 to 5
CC(C)(C)OC(=O)N1CCC2(CC1)CC(CNc1ccc(S(=O)(=O)NC(=O)c3ccc(N4CCN([C@@H]5CCCCc6c(Cl)cccc65)CC4)cc3Oc3cnc4[nH]ccc4c3)cc1[N+](=O)[O-])C2 [Compound 100, tert-butyl (R)-2-(((4-(N-(2-((1H-pyrrolo[2,3-b]pyridin-5-yl)oxy)-4-(4-(1-chloro-6,7,8,9-tetrahydro-5H-benzo[7]annulen-5-yl)piperazin-1-yl)benzoyl)sulfamoyl)-2-nitrophenyl)amino)methyl)-7-azaspiro[3.5]nonane-7-carboxylate]	< 0.02	< 30	0.2 to 2	0.05 to 0.5
CC(=O)N1CCC2(CC1)CC(CNc1ccc(S(=O)(=O)NC(=O)c3ccc(N4CCN([C@@H]5CCCCc6c(Cl)cccc65)CC4)cc3Oc3cnc4[nH]ccc4c3)cc1[N+](=O)[O-])C2 [Compound 111, (R)-2-((1H-pyrrolo[2,3-b]pyridin-5-yl)oxy)-N-((4-(((7-acetyl-7-azaspiro[3.5]nonan-2-yl)methyl)amino)-3-nitrophenyl)sulfonyl)-4-(4-(1-chloro-6,7,8,9-tetrahydro-5H-benzo[7]annulen-5-yl)piperazin-1-yl)benzamide]	< 0.02		0.02 to 0.2	< 0.05
CC(C)(C)OC(=O)NCCN1CCC2(CC1)CC(CNc1ccc(S(=O)(=O)NC(=O)c3ccc(N4CCN([C@@H]5CCCCc6c(Cl)cccc65)CC4)cc3)cc1[N+](=O)[O-])C2 [Compound 119, tert-butyl (R)-(2-(2-(((4-(N-(4-(4-(1-chloro-6,7,8,9-tetrahydro-5H-benzo[7]annulen-5-yl)piperazin-1-yl)benzoyl)sulfamoyl)-2-nitrophenyl)amino)methyl)-7-azaspiro[3.5]nonan-7-yl)ethyl)carbamate]	0.02 to 0.2		0.2 to 2	0.05 to 0.5
CCOC(=O)CCN1CCC2(CC1)CC(CNc1ccc(S(=O)(=O)NC(=O)c3ccc(N4CCN([C@@H]5CCCCc6c(Cl)cccc65)CC4)cc3Oc3cnc4[nH]ccc4c3)cc1[N+](=O)[O-])C2 [Compound 130, ethyl (R)-3-(2-(((4-(N-(2-((1H-pyrrolo[2,3-b]pyridin-5-yl)oxy)-4-(4-(1-chloro-6,7,8,9-tetrahydro-5H-benzo[7]annulen-5-yl)piperazin-1-yl)benzoyl)sulfamoyl)-2-nitrophenyl)amino)methyl)-7-azaspiro[3.5]nonan-7-yl)propanoate]	< 0.02		< 0.02	< 0.05
CC1(C)CCC(CN2CCN(c3ccc(C(=O)NS(=O)(=O)c4ccc(NCC5CCOCC5)c([N+](=O)[O-])c4)c(Oc4cnc5[nH]ccc5c4)c3)CC2)=C(c2ccc(Cl)cc2)C1 [Venetoclax, reference compound]		49		

The next lines start with results.

IC50 (BCL-2) [µM]	inhibition at 10 min, 1 µM (CYP2C9) [%]	IC50 (BCL-XL) [µM]	Structure (SMILES)	GI50 (DOHH2 cells) [µM]
0.02 to 0.2		0.02 to 0.2	O=C(NS(=O)(=O)c1ccc(NCC2CC3(CCNCC3)C2)c([N+](=O)[O-])c1)c1ccc(N2CCN([C@@H]3CCCCc4c(Cl)cccc43)CC2)cc1 [Compound 117, (R)-N-((4-(((7-azaspiro[3.5]nonan-2-yl)methyl)amino)-3-nitrophenyl)sulfonyl)-4-(4-(1-chloro-6,7,8,9-tetrahydro-5H-benzo[7]annulen-5-yl)piperazin-1-yl)benzamide]	> 5
0.02 to 0.2		0.02 to 0.2	NCCN1CCC2(CC1)CC(CNc1ccc(S(=O)(=O)NC(=O)c3ccc(N4CCN([C@@H]5CCCCc6c(Cl)cccc65)CC4)cc3)cc1[N+](=O)[O-])C2 [Compound 120, (R)-N-((4-(((7-(2-aminoethyl)-7-azaspiro[3.5]nonan-2-yl)methyl)amino)-3-nitrophenyl)sulfonyl)-4-(4-(1-chloro-6,7,8,9-tetrahydro-5H-benzo[7]annulen-5-yl)piperazin-1-yl)benzamide]	0.5 to 5
< 0.02		< 0.02	O=C(NS(=O)(=O)c1ccc(NCC2CC3(CCN(CCO)CC3)C2)c([N+](=O)[O-])c1)c1ccc(N2CCN([C@@H]3CCCCc4c(Cl)cccc43)CC2)cc1Oc1cnc2[nH]ccc2c1 [Compound 121, (R)-2-((1H-pyrrolo[2,3-b]pyridin-5-yl)oxy)-4-(4-(1-chloro-6,7,8,9-tetrahydro-5H-benzo[7]annulen-5-yl)piperazin-1-yl)-N-((4-(((7-(2-hydroxyethyl)-7-azaspiro[3.5]nonan-2-yl)methyl)amino)-3-nitrophenyl)sulfonyl)benzamide]	< 0.05
< 0.02		0.02 to 0.2	CCOC(=O)CN1CCC2(CC1)CC(CNc1ccc(S(=O)(=O)NC(=O)c3ccc(N4CCN([C@@H]5CCCCc6c(Cl)cccc65)CC4)cc3Oc3cnc4[nH]ccc4c3)cc1[N+](=O)[O-])C2 [Compound 122, ethyl (R)-2-(2-(((4-(N-(2-((1H-pyrrolo[2,3-b]pyridin-5-yl)oxy)-4-(4-(1-chloro-6,7,8,9-tetrahydro-5H-benzo[7]annulen-5-yl)piperazin-1-yl)benzoyl)sulfamoyl)-2-nitrophenyl)amino)methyl)-7-azaspiro[3.5]nonan-7-yl)acetate]	< 0.05
< 0.02		< 0.02	O=C(O)CN1CCC2(CC1)CC(CNc1ccc(S(=O)(=O)NC(=O)c3ccc(N4CCN([C@@H]5CCCCc6c(Cl)cccc65)CC4)cc3Oc3cnc4[nH]ccc4c3)cc1[N+](=O)[O-])C2 [Compound 123, (R)-2-(2-(((4-(N-(2-((1H-pyrrolo[2,3-b]pyridin-5-yl)oxy)-4-(4-(1-chloro-6,7,8,9-tetrahydro-5H-benzo[7]annulen-5-yl)piperazin-1-yl)benzoyl)sulfamoyl)-2-nitrophenyl)amino)methyl)-7-azaspiro[3.5]nonan-7-yl)acetic acid]	0.05 to 0.5
< 0.02		0.02 to 0.2	CC(C)C(=O)N1CCC2(CC1)CC(CNc1ccc(S(=O)(=O)NC(=O)c3ccc(N4CCN([C@@H]5CCCCc6c(Cl)cccc65)CC4)cc3Oc3cnc4[nH]ccc4c3)cc1[N+](=O)[O-])C2 [Compound 124, (R)-2-((1H-pyrrolo[2,3-b]pyridin-5-yl)oxy)-4-(4-(1-chloro-6,7,8,9-tetrahydro-5H-benzo[7]annulen-5-yl)piperazin-1-yl)-N-((4-(((7-isobutyryl-7-azaspiro[3.5]nonan-2-yl)methyl)amino)-3-nitrophenyl)sulfonyl)benzamide]	< 0.05
< 0.02		< 0.02	CC(C)[C@H](N)C(=O)N1CCC2(CC1)CC(CNc1ccc(S(=O)(=O)NC(=O)c3ccc(N4CCN([C@@H]5CCCCc6c(Cl)cccc65)CC4)cc3Oc3cnc4[nH]ccc4c3)cc1[N+](=O)[O-])C2 [Compound 125, 2-((1H-pyrrolo[2,3-b]pyridin-5-yl)oxy)-N-((4-(((7-(L-valyl)-7-azaspiro[3.5]nonan-2-yl)methyl)amino)-3-nitrophenyl)sulfonyl)-4-(4-((R)-1-chloro-6,7,8,9-tetrahydro-5H-benzo[7]annulen-5-yl)piperazin-1-yl)benzamide]	< 0.05
< 0.02		< 0.02	O=C(NS(=O)(=O)c1ccc(NCC2CC3(CCN(CC4CC4)CC3)C2)c([N+](=O)[O-])c1)c1ccc(N2CCN([C@@H]3CCCCc4c(Cl)cccc43)CC2)cc1Oc1cnc2[nH]ccc2c1 [Compound 129, (R)-2-((1H-pyrrolo[2,3-b]pyridin-5-yl)oxy)-4-(4-(1-chloro-6,7,8,9-tetrahydro-5H-benzo[7]annulen-5-yl)piperazin-1-yl)-N-((4-(((7-(cyclopropylmethyl)-7-azaspiro[3.5]nonan-2-yl)methyl)amino)-3-nitrophenyl)sulfonyl)benzamide]	< 0.05
< 0.02		< 0.02	CCN1CCC2(CC1)CC(CNc1ccc(S(=O)(=O)NC(=O)c3ccc(N4CCN([C@@H]5CCCCc6c(Cl)cccc65)CC4)cc3Oc3cnc4[nH]ccc4c3)cc1[N+](=O)[O-])C2 [Compound 131, (R)-2-((1H-pyrrolo[2,3-b]pyridin-5-yl)oxy)-4-(4-(1-chloro-6,7,8,9-tetrahydro-5H-benzo[7]annulen-5-yl)piperazin-1-yl)-N-((4-(((7-ethyl-7-azaspiro[3.5]nonan-2-yl)methyl)amino)-3-nitrophenyl)sulfonyl)benzamide]	< 0.05
